From paper PMC6711789 (Bioorganic & medicinal chemistry letters, 2019)
Marks after values point to notes of the source that are not given here.

What was measured:
[1] = tested on: S. aureus ATCC 8235-4 (MSSA); experiment: Broth microdilution MIC against S. aureus ATCC 8235-4; format: cell-based; conditions: lowest concentration preventing visible growth
[2] = tested on: COXI and SDH-A mitochondrial proteins; format: cell-based; conditions: read-out: Mt protein synthesis inhibition IC50
[3] = tested on: CYP1A2, 2C9, 2C19, 2D6, 3A4; experiment: CYP inhibition; format: in vitro ADME; conditions: measured against CYP1A2, 2C9, 2C19, 2D6, 3A4
[4] = Cytotoxicity against HepG2 cells using CellTiter Glo; format: cell-based; conditions: human

| SMILES | MIC [1] | IC50 [2] [µM] | CYP inhibition [3] [µM] | EC50 [4] [µM] |
| --- | --- | --- | --- | --- |
| CC(=O)NC[C@H]1CN(c2ccc(N3CCOC4(CCN(C)C4)C3)c(F)c2)C(=O)O1 (stereo partly drawn) [Compound 17] | > 32^b μg/mL | – | – | – |
| CC(=O)NC[C@H]1CN(c2ccc(N3CCOC(C)(CCN(C)C)C3)c(F)c2)C(=O)O1 (stereo partly drawn) [Compound 23] | > 32^b μg/mL | – | – | – |
| CC(=O)NC[C@H]1CN(c2ccc(N3CCOC4(CCCNC4)C3)c(F)c2)C(=O)O1 (stereo partly drawn) [Compound 25] | > 32^b μg/mL | – | – | – |
| CC(=O)NC[C@H]1CN(c2ccc(N3CCOC4(CCNC4)C3)c(F)c2)C(=O)O1 (stereo partly drawn) [Compound 27] | > 32^b μg/mL | – | – | – |
| CC(=O)NC[C@H]1CN(c2ccc(N3CCOCC3)c(F)c2)C(=O)O1 [Linezolid, linezolid, reference compound] | – | – | >100 | > 30 |

The next lines start with results.

| MIC [1] | IC50 [2] [µM] | CYP inhibition [3] [µM] | SMILES | EC50 [4] [µM] |
| --- | --- | --- | --- | --- |
| – | 30 | > 100 | CC(=O)NC[C@H]1CN(c2ccc(N3CCO[C@@]4(CCCOC4)C3)c(F)c2)C(=O)O1 [Compound 19a] | > 30 |
| – | > 30 | >100 | CC(=O)NC[C@H]1CN(c2ccc(N3CCO[C@]4(CCCOC4)C3)c(F)c2)C(=O)O1 [Compound 19b] | > 30 |
